Experimental data taken from patent US20240148749A1 (priority 2021, published 2024).

Test system: brain
Test: Brain ROS/RNS, antioxidant defense and bioenergetic/mitochondrial parameters at 21 days
Type: in vivo, mouse
Text: (b) Levels of the central bioenergetic metabolite Acetyl-CoA expressed in nmol/g. Expression of genes coding for PGC-lalpha quantified by RT-qPCR from RNA isolated from brains extracted from control and CLP mice with or without MnTBAP.
Data shown are mean values (±SD). Gray bars represent MnTBAP-treated mice from either CLP or control groups, and black bars represent placebo-treated mice from either CLP or Control groups. Two-way analyses of variance (ANOVAs) (CLP vs Control×MnTBAP vs Placebo) were performed. When a significant interaction was observed, planned comparisons were performed for the CLPI/Placebo group against the three other groups. The significance of the planned comparisons is indicated with asterisks (*p<0.05, **p<0.01, ***p<0.001, ****p<0.0001) .
MnTBAP is commercially available: it is for example manufactured by Sigma-Aldrich, Calbiochem, etc. For use it is dissolved following the guidance provided by the manufacturer.
Total RNA was isolated from cells using the RNAeasy Micro kit (Qiagen), and reverse-transcribed using Superscript® III Reverse transcriptase (Invitrogen). Real-time quantitative PCR was performed in duplicate for each sample using Power Sybr Green PCR Master Mix (Applied Biosystems) and the rate of dye incorporation was monitored using the StepOne™ Plus RealTime PCR system (Applied Biosystems). Data were analyzed by StepOne Plus RT PCR software v2.1 and Microsoft excel. Amplification specificity was assessed with a melting curve analysis. TBP transcript levels were used for normalisation of each target (=ΔCT). Real-time PCR CT values were analyzed using the 2^−(ΔCt) method to calculate the fold expression (Schmittgen et al., 2008). The data are presented as relative mRNA units with respect to control group (expressed as fold over control value). Primer sequences available upon request.
Microglial cells and brain samples were resuspended in lysis buffer (50 mM TrisHCI pH 7.5, 150 mM NaCl, 1% Triton X-100, 0.1% SDS, 1 mM EDTA, and protease inhibitor mixture), mechanically homogenized with a piston, briefly vortexed and incubated for 30 min at 4° C. Lysed samples were briefly centrifuged to remove debris, and the whole supernatant extract was collected. Aliquots of the supernatant were immediately used for the assessment of ROS level, RNS level, dual ROS/RNS level, SOD activity, and Acetyl-Coa level. The protein content was determined with the Bradford reagent (Sigma-Aldrich).
Both ROS and RNS were measured by incubating CellROX (Life Technologies) with 30 μg of freshly extracted total proteins for 45 min at 37° C. in the dark in 96-wells plate in triplicate. Fluorescence intensity was measured using near-infra-red fluorescence setting with the plate reader Odyssey Infrared Imaging system scanner and Odyssey application software v3.0 (LI-COR Biosciences, Lincoln, NE).
SOD activity was measured with Superoxide Dismutase Activity Colorimetric Assay kit (Abcam, ab65354), following the manufacturer's instructions. This measurement assesses SOD-dependent inhibition of superoxide anion reduction. Tests were performed with 30 μg of freshly extracted total proteins, quantified by Bradford assay, or with 10 μl of serum, in triplicate.
Total DNA was prepared using extraction buffer (0.2 mg ml^−1 proteinase K, 0.2% SDS and 5 mM EDTA in PBS) and incubated at 50° C. for 3 h. DNA was precipitated with 3 M sodium acetate (pH 5.2) and isopropanol for 20 min on ice before centrifugation at 8,000 g at 4° C. The DNA pellet was washed and briefly air-dried. qPCR amplification was performed on total DNA using the StepOne Plus RealTime PCR system (Applied Biosystems) and Power Sybr Green PCR Master mix (ABI) following the manufacturer's instruction. A fragment of mitochondrial COI gene, the established marker for mtDNA content in mouse cells, was amplified using the nuclear encoded Ndufv1 gene as endogenous reference. […]

[1] = CLP mice + MnTBAP, 21 days after sepsis
[2] = CLP mice + MnTBAP, 21 days after sepsis, remained different from Control-Placebo
[3] = MnTBAP in control mice vs Control-placebo mice
[4] = MnTBAP in control mice vs Control-placebo mice, p<0.0001

O=C(O)c1ccc(/C2=C3\C=CC(=N3)/C(c3ccc(C(=O)O)cc3)=c3/cc/c4[n]3[Mn]([Cl])[n]3c2ccc3/C(c2ccc(C(=O)O)cc2)=C2/C=CC(=N2)\C=4c2ccc(C(=O)O)cc2)cc1 [MnTBAP, Manganese (III) tetrakis (4-benzoic acid)porphyrin chloride]
brain acetyl-coA levels [1]: strongly decreased | brain mtRNA 16S levels [1]: strongly decreased | brain ATP production [2]: significantly increasing | brain ROS/RNS levels [2]: significantly increasing | brain SOD1 expression [2]: significantly increasing | brain SOD activity levels [2]: significantly increasing | sepsis-induced brain alterations (CLP mice, 21 days after sepsis): counteracted | brain PGC1 alpha expression [3]: did not affect | brain acetyl-coA levels [3]: did not affect | brain catalase expression [3]: did not affect | brain ATP production [4]: increase | brain NRF2 expression [4]: increase | brain SOD1 expression [4]: increase | brain SOD2 expression [4]: increase | brain SOD activity [4]: increase | brain mtDNA content [4]: increase | brain mtRNA 16S level (MnTBAP in control mice vs Control-placebo mice, p=0.0005): increase | brain ROS/RNS levels (MnTBAP in control mice vs Control-placebo mice, p=0.001): increase | brain mtRNA CytB level (MnTBAP in control mice vs Control-placebo mice, p=0.04): increase
